The text below walks through data of patent US4707488A, “Dopamine-β-hydroxylase inhibitors and use thereof” (Smithkline Beckman Corporation, priority 1985, dated 1987).

The target of data set [1] is T1, DBH (Bos taurus, UniProt P15101).
T1 sequence (P15101 1-610): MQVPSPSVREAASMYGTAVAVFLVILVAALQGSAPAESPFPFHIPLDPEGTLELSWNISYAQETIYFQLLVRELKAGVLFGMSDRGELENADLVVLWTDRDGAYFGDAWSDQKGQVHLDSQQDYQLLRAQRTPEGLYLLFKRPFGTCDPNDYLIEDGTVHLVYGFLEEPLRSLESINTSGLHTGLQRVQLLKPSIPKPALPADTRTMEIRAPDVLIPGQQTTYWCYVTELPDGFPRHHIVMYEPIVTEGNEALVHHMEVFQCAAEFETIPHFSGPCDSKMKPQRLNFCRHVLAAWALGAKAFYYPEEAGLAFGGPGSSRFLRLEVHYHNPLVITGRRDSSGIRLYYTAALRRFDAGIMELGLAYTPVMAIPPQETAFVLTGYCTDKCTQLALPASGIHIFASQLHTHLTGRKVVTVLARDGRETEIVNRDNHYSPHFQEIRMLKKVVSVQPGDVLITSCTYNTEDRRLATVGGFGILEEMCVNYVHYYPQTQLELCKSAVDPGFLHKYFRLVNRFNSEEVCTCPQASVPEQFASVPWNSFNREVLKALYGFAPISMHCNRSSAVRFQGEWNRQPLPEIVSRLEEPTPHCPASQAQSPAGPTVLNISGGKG
The experiment in a line: in vitro DBH inhibition, conversion of tyramine to octopamine. The format is biochemical. The procedure: Compounds of the invention and other compounds useful in the method of the invention were screened for in vitro DBH inhibition by a standard procedure for assaying conversion of tyramine to octopamine in the presence of DBH. Octopamine was assayed following sodium periodate oxidation to p-hydroxybenzaldehyde by measuring spectrophotometric absorbance at 330 nm. Inhibition is given in molar concentration of compound at which DBH activity was halved (IC50). Melting points (mp) are given in °C. By this procedure fusaric acid has an IC50 of about 8×10^-7.

For data set [2] the following is noted: Teresawa et al., Japan Cir. J. 35, 339 (1971); cited from earlier work.
A short description of data set [3]: mean arterial blood pressure, indwelling cannulae inserted into the tail artery. The format is in vivo, Spontaneously hypertensive rats. Conditions: 50 mg/kg, ip. The procedure:
(§1) Various compounds of the invention were tested for their effects in vivo on peripheral dopamine (DA) and norepinephrine (NE) levels substantially by the procedure of DaPrada and Zurcher, Life Sci., 19, 1161, (1976). Spontaneously hypertensive rats were dosed twice, the second dose being about 18 hours after the first, and were sacrificed about 2 hours after the second dose.
Further, the same rats were dosed with a suspension or solution at a dose of 50 mg/kg of test compound i.p. and mean arterial blood pressure was determined with indwelling cannulae inserted into the tail artery.

Data set [4] has as its system peripheral dopamine (DA) and norepinephrine (NE) levels. The experiment in a line: in vivo effects on peripheral dopamine (DA) and norepinephrine (NE) levels. The arrangement: species or system Spontaneously hypertensive rats. The note with it: dosed twice about 18 hours apart, sacrificed about 2 hours after second dose. The procedure: as §1
Setting [5] is: octopamine assayed after periodate oxidation, absorbance at 330 nm, read-out: IC50 (molar concentration of compound at which DBH activity was halved).

Structures are written as SMILES. Where two headings read alike, the source gives them in different places.

As to `CCCCc1ccc(C(=O)O)nc1` [Fusaric acid, fusaric acid, reference compound], the IC50 in data set [1] was ~800 nM. Further, the hepatotoxicity result in data set [2] is on record as “hepatotoxic”.

As to `Oc1c(F)cc(CCCn2nnnc2S)cc1F` [Example 12, 1-(3-(3,5-Difluoro-4-hydroxyphenyl)propyl)-5-mercaptotetrazole], the IC50 in data set [1] (setting [5]) is 80 nM.

Turning to `COc1ccc(Cn2nnnc2S)cc1` [Example 4, 1-(4-Methoxybenzyl)-5-mercaptotetrazole], the IC50 in data set [1] (setting [5]) amounted to 15000 nM.

For the compound `Sc1nnnn1Cc1c(Cl)cccc1Cl` [Example 3, 1-(2,6-Dichlorobenzyl)-5-mercaptotetrazole], in data set [1] (setting [5]), the IC50 was determined as 9200 nM.

Take `Sc1nnnn1Cc1ccccc1` [Example 6, 1-Benzyl-5-mercaptotetrazole]: the IC50 in data set [1] (setting [5]) is 13000 nM. Also, in data set [3], the “reduction in mean arterial pressure” value is reported as “significant reduction in mean arterial pressure”.

As to `Fc1cc(F)cc(CCCn2nnnc2S)c1` [Example 7, 1-(3-(3,5-Difluorophenyl)propyl)-5-mercaptotetrazole], in data set [1] (setting [5]), the IC50 stood at 350 nM.

For the compound `Oc1ccc(CCCn2nnnc2S)cc1` [Example 11, 1-(3-(4-Hydroxyphenyl)propyl)-5-mercaptotetrazole], in data set [1] (setting [5]), the IC50 was 790 nM.

On to `Sc1nnnn1Cc1cc(Cl)cc(Cl)c1` [Example 2, 1-(3,5-Dichlorobenzyl)-5-mercaptotetrazole], for which the IC50 in data set [1] (setting [5]) came out at 1000 nM. The “reduction in mean arterial pressure” value in data set [3] is reported as “significant reduction in mean arterial pressure”. Moreover, the “DA/NE Ratio” value in data set [4] amounted to 0.053 ± 0.0035. In data set [4] (micrograms per gram of tissue), this compound yielded a DA of 0.360 ± 0.015 µg/g and an NE of 6.838 ± 0.257 µg/g.

Turning to `Sc1nnnn1CCCc1ccccc1` [Example 5, 1-(3-Phenylpropyl)-5-mercaptotetrazole], the IC50 in data set [1] (setting [5]) came out at 2400 nM.

With `Sc1nnnn1CCCc1cc(Cl)cc(Cl)c1` [Example 9, 1-(3-(3,5-Dichlorophenyl)propyl)-5-mercaptotetrazole], the IC50 in data set [1] (setting [5]) is 390 nM.

With `Fc1cc(F)cc(Cn2nnnc2S)c1` [Example 1, 1-(3,5-Difluorobenzyl)-5-mercaptotetrazole], the IC50 in data set [1] (setting [5]) stood at 1500 nM.
